Test results published in patent US9156830B2, “Heterocyclic compounds” (SHIONOGI & CO., LTD., priority 2011, dated 2015).

Key:
Human TRPV1 [1] = target: T1, Human TRPV1 (Homo sapiens (Human), UniProt Q8NER1); experiment: Capsaicin-Based Assay (Protocol 2), TRPV1/CHO cells; format: cell-based; conditions: capsaicin 100 nM final
Experimental: The TRPV1/CHO cell line was generated as described below. […] Subsequently, the cells were loaded by incubation in 0.1 mL of wash buffer containing Fluo-4 at 3 μM final concentration. After 1 hour, the cells were washed twice with 0.2 mL wash buffer and resuspended in 0.1 mL wash buffer. The plates were then transferred to a Fluorescence Imaging Plate Reader (Molecular Devices). Fluorescence intensity was monitored for 15 seconds to establish a baseline. […] The final concentration of the compound was adjusted to range from 100 μM to 1.5625 μM. […] Data were collected over the entire time course and analyzed using Excel and the curve-fitting formula GraphPad Prism.

Human TRPV1 [2] = target: T1, Human TRPV1; experiment: pH-Based Assay (Protocol 2), Ca2+ response in TRPV1/CHO cells; format: cell-based; conditions: pH 5.0-5.1 (H2SO4)
Experimental: The TRPV1/CHO cell line was generated as described below. The following assay was conducted to determine the concentration of sulfuric acid that would give rise to a pH that induces a […] response optimal to test compounds for their effect on TRPV1. […] For one half of a 96-well plate one agonist solution was used, for the other half the other agonist solution. The agonist solutions were obtained by diluting sulfuric acid (H2SO4, 1 M) with measuring buffer. The concentrations for the two agonist solutions were determined as described above in Section 2 of Protocol 2. The sulfuric acid concentrations between the two agonist solutions differed by 0.5 mM. […] The thereby-obtained solutions were further diluted in measuring buffer (1:100) as 10× stock serial dilutions with a DMSO concentration of 1%. 10 μL of a 10× stock was added into each well at step 3.3.(4) of Protocol 2. Thus, the final concentrations of antagonists ranged from 1000-0.977 nM containing 0.1% DMSO (FIG. 3B). […] (3) The cells were washed twice with 150 μL of measuring buffer (mentioned in 2.2.(3) of Protocol 2, no probenecid). The wells were subsequently refilled with 70 μL of measuring buffer. (4) Either 10 μL of measuring buffer or 10 μL of 10× stock serial dilution of test compound (described in 3.2. above) were applied to each well. Usually, only one test compound was tested per 96-well plate. The number of replicates per 96-well plate for a particular antagonist at a particular concentration was 7×2 since two different sulfuric acid concentrations were used per 96-well plate (N=7×2)(FIG. 3). Step (5) was the same as 2.2.(4) above. (6) Fura-2 fluorescent intensity was monitored as described in 2.2.(5) above. […] Steps (7) and (8) were as described in 2.2.(6) and 2.2.(7) above, respectively. […] FIG. 3) were measured one by one using a portable pH meter.

[3] = Measurement of Body Temperature Increase; format: in vivo; conditions: Crl/SD rats, oral, 1 mg/mL in 0.5% methylcellulose at 10 mL/kg; rectal temperature 0.5, 1 and 2 hrs after administration; difference from vehicle group average
Experimental: Selection of rats (Crl/SD rats, 7 weeks, male) for this study is based on rectal body temperature measured during the morning of the day of dosing. In addition, animals selected for this study are acclimated to both the rectal measurement procedure and to being handled and dosed to minimize spontaneous, stress-induced, increases in body temperature. The study is conducted in the animal care laboratories where the room temperature and humidity are kept. The rats are free to move and food and water during the study. Each rat is numbered with color line on the tail, housed in each cage and permittted the normal range of movement. Immediately before each body temperature is measured, they transferred to a single cage at each measurement. To reduce stress which affected the body temperature, the rats are covered with towels at the measurement. The thermistor probe is then carefully inserted into the rectum of each rat and left in place until the value on the digital display had stabilized.
On the day before dosing, rectal body temperatures are measured at 9:00, 10:00, 11:00, 12:30, 13:30, 14:30 and 15:30 to familiarize the animals with the measurement procedure prior to administration of the test or control treatments. The rats are also dosed by oral gavage without vehicle at 12:30 to acclimate and familiarized the animals with the handling and dosing procedure.
On the day of dosing, only rats whose rectal body temperatures are within the range of 37.0° C. to 37.7° C. are selected for this study. Rectal body temperatures are measured at 9:00, 10:00 and 11:00. Rats whose rectal body temperatures are over 37.9° C. at 10:00, and are outside the range of 37.0° C. to 37.7° C. at 11:00 are excluded from the study. The selected rats are divided to several groups based on their rectal body temperatures at 11:00. Rectal body temperatures of the selected rats are measured again at 12:30, and any rats whose rectal body temperature is 38.0° C. or greater are excluded from the study.
Following the group assignment, test compounds or vehicle is administrated to the rats. Each test compound is dissolved in 0.5% methylcellulose and the final concentration of the compound is adjusted to 1 mg/mL. Test compound is orally administrated in a volume 10 mL/kg once. 10 mL/kg of vehicle (0.5% methylcellulose) is administered to the vehicle group. The rectal body temperatures are measured 0.5, 1 and 2 hrs after the administration. The study is conducted in the animal care laboratories where the room temperature and humidity are kept.
Body temperature increase (ΔTb) is calculated from the difference from an average of the vehicle group at each time point. The body temperature increases (ΔTb) of Compounds I-20, I-25, I-26, I-28, I-29, I-33, I-34, I-36, I-37, I-63 and I-64 were less than 0.3° C.

[4] = Fluo-4, read-out: IC50 value by the Capsaicin-Based Assay
[5] = Fura-2, read-out: IC50 value by the pH-Based Assay
[6] = Fluo-4, read-out: TRPV1 IC50 Potency Capsaicin-Based Assay IC50
[7] = Fura-2, read-out: TRPV1 IC50 Potency pH-Based Assay IC50

T1 sequence (Q8NER1 whole entry): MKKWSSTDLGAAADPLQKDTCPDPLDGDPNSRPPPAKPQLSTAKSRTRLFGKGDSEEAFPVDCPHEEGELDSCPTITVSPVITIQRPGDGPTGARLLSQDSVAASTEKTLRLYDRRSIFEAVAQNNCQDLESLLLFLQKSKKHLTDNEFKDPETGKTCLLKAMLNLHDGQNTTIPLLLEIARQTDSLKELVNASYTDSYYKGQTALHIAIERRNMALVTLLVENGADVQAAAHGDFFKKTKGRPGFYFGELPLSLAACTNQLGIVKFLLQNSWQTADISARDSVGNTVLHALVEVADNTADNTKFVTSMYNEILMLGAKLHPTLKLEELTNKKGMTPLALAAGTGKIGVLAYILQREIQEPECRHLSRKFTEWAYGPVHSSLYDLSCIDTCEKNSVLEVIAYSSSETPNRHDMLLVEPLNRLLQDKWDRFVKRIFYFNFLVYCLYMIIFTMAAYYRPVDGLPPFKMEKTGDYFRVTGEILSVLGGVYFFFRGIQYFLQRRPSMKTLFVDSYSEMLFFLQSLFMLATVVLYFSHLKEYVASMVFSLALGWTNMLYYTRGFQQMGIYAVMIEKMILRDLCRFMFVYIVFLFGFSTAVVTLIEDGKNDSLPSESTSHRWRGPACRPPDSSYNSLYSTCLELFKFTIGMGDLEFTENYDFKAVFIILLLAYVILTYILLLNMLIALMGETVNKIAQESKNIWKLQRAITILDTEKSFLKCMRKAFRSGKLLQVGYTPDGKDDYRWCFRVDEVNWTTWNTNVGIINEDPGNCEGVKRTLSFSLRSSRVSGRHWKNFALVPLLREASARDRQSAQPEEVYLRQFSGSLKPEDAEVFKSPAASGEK

| Structure (SMILES) | IC50 (Human TRPV1 [1]; [4]) [nM] | IC50 (Human TRPV1 [2]; [5]) [nM] | IC50 (Human TRPV1 [1]; [6]) [nM] | other results |
| --- | --- | --- | --- | --- |
| O=C(Nc1ccc(C(F)(F)F)cn1)N1CCC(F)(c2ncc(-c3cc(CO)on3)cc2Cl)CC1 [Compound I-53, 4-(3-chloro-5-(5-(hydroxymethyl)isoxazol-3-yl)pyridin-2-yl)-4-fluoro-N-(5-(trifluoromethyl)pyridin-2-yl)piperidine-1-carboxamide] | ≤ 100 | ≤ 100 |  |  |
| Cc1cc(NC(=O)N2CC=C(c3ncc(-c4nc(CO)no4)cc3F)CC2)ccc1C(F)(F)F [Compound I-64, 4-(3-fluoro-5-(3-(hydroxymethyl)-1,2,4-oxadiazol-5-yl)pyridin-2-yl)-N-(3-methyl-4-(trifluoromethyl)phenyl)-5,6-dihydropyridine-1(2H)-carboxamide] |  |  |  | Body temperature increase (ΔTb) [3]: less than 0.3 °C |
| Cc1cc(-c2ccc(CO)o2)cnc1C1(F)CCN(C(=O)Nc2ccc(C(F)(F)F)c(Cl)c2)CC1 [Compound I-39, N-(3-chloro-4-(trifluoromethyl)phenyl)-4-fluoro-4-(5-(5-(hydroxymethyl)furan-2-yl)-3-methylpyridin-2-yl)piperidine-1-carboxamide] |  |  | 342 |  |
| Cc1cc(NC(=O)N2CC=C(c3ncc(Cc4ncco4)cc3Cl)CC2)ccc1C(F)(F)F [Compound I-80, 4-(3-chloro-5-(oxazol-2-ylmethyl)pyridin-2-yl)-N-(3-methyl-4-(trifluoromethyl)phenyl)-5,6-dihydropyridine-1(2H)-carboxamide] |  |  | 223 |  |
| O=C(Nc1ccc(C(F)(F)F)cn1)N1CCC(F)(c2ncc(-c3nc(CO)no3)cc2Cl)CC1 [Compound I-57, 4-(3-chloro-5-(3-(hydroxymethyl)-1,2,4-oxadiazol-5-yl)pyridin-2-yl)-4-fluoro-N-(5-(trifluoromethyl)pyridin-2-yl)piperidine-1-carboxamide] |  |  | 16.6 |  |
| O=C(Nc1ccc(C(F)(F)F)c(Cl)c1)N1CC=C(c2ncc(N3C[C@@H](O)[C@@H](O)C3=O)cc2Cl)CC1 [Compound I-71, N-(3-chloro-4-(trifluoromethyl)phenyl)-4-(3-chloro-5-((3R,4R)-3,4-dihydroxy-2-oxopyrrolidin-1-yl)pyridin-2-yl)-5,6-dihydropyridine-1(2H)-carboxamide] |  |  | 322 |  |
| O=C(Nc1ccc(C(F)(F)F)c(Cl)c1)N1CC=C(c2ccc(-c3nnc(CO)o3)cc2Cl)CC1 [Compound I-75, 4-(2-chloro-4-(5-(hydroxymethyl)-1,3,4-oxadiazol-2-yl)phenyl)-N-(3-chloro-4-(trifluoromethyl)phenyl)-5,6-dihydropyridine-1(2H)-carboxamide] | ≤ 100 | ≤ 100 |  |  |
| Cc1cc(-c2nnc(CO)o2)cnc1C1=CCN(C(=O)Nc2ccc(C(F)(F)F)c(Cl)c2)CC1 [Compound I-43, N-(3-chloro-4-(trifluoromethyl)phenyl)-4-(5-(5-(hydroxymethyl)-1,3,4-oxadiazol-2-yl)-3-methylpyridin-2-yl)-5,6-dihydropyridine-1(2H)-carboxamide] | ≤ 100 | ≤ 100 |  |  |
| Cc1cc(NC(=O)N2CCC(F)(c3ncc(-c4cc(CO)on4)cc3Cl)CC2)ccc1C(F)(F)F [Compound I-54, 4-(3-chloro-5-(5-(hydroxymethyl)isoxazol-3-yl)pyridin-2-yl)-4-fluoro-N-(3-methyl-4-(trifluoromethyl)phenyl)piperidine-1-carboxamide] | ≤ 100 | ≤ 100 |  |  |
| O=C(NCCNc1ncc(-c2nnc(CO)o2)cc1Cl)Nc1ccc(C(F)(F)F)c(Cl)c1 [Compound I-60, 1-(3-chloro-4-(trifluoromethyl)phenyl)-3-(2-(3-chloro-5-(5-(hydroxymethyl)-1,3,4-oxadiazol-2-yl)pyridin-2-ylamino)ethyl) urea] |  |  | 357 |  |
| O=C(Nc1ccc(C(F)(F)F)c(Cl)c1)C1=CCN(c2ncc(-c3nnc(CO)o3)cc2Cl)CC1 [Compound I-67, N-(3-chloro-4-(thloro-5-(5-(hydroxymethyl)-1,3,4-oxadiazol-2-yl)pyridin-2-yl)-1,2,3,6-terifluoromethyl)phenyl)-1-(3-ctrahydropyridine-4-carboxamide] | ≤ 100 | ≤ 100 |  |  |
| Cc1cc(NC(=O)N2CC=C(c3ccc(-c4nnc(CO)o4)cc3Cl)CC2)ccc1C(F)(F)F [Compound I-76, 4-(2-chloro-4-(5-(hydroxymethyl)-1,3,4-oxadiazol-2-yl)phenyl)-N-(3-methyl-4-(trifluoromethyl)phenyl)-5,6-dihydropyridine-1(2H)-carboxamide] | ≤ 100 |  |  | IC50 (Human TRPV1 [2]; [7]): 2.1 nM |
| Cc1nnc(-c2cnc(C3=CCN(C(=O)Nc4ccc(C(C)(C)C)cc4)CC3)c(Cl)c2)o1 [Compound I-7] |  |  |  | IC50 (Human TRPV1 [2]; [7]): 0.5 nM |
| O=C(Nc1ccc(C(F)(F)F)c(Cl)c1)N1CC=C(c2ncc(Cc3nnc(CO)o3)cc2Cl)CC1 [Compound I-77, N-(3-chloro-4-(trifluoromethyl)phenyl)-4-(3-chloro-5-((5-(hydroxymethyl)-1,3,4-oxadiazol-2-yl)methyl)pyridin-2-yl)-5,6-dihydropyridine-1(2H)-carboxamide] |  |  | 38.8 |  |
| O=C(Nc1ccc(C(F)(F)F)c(Cl)c1)N1CC=C(c2ncc(-c3nnc(CCO)o3)cc2Cl)CC1 [Compound I-50, N-(3-chloro-4-(trifluoromethyl)phenyl)-4-(3-chloro-5-(5-(2-hydroxyethyl)-1,3,4-oxadiazol-2-yl)pyridin-2-yl)-5,6-dihydropyridine-1(2H)-carboxamide] |  |  |  | IC50 (Human TRPV1 [2]; [7]): 60.8 nM |
| O=C(Nc1ccc(C(F)(F)F)c(Cl)c1)N1CCC(F)(c2ncc(-c3cc(CO)on3)cc2Cl)CC1 [Compound I-52, N-(3-chloro-4-(trifluoromethyl)phenyl)-4-(3-chloro-5-(5-(hydroxymethyl)isoxazol-3-yl)pyridin-2-yl)-4-fluoropiperidine-1-carboxamide] | ≤ 100 | ≤ 100 |  |  |
| O=C(C#Cc1ccc(-c2nnc(CO)o2)cc1Cl)Nc1ccc(C(F)(F)F)c(Cl)c1 [Compound I-81, 3-(2-chloro-4-(5-(hydroxymethyl)-1,3,4-oxadiazol-2-yl)phenyl)-N-(3-chloro-4-(trifluoromethyl)phenyl)propiolamide] |  |  |  | IC50 (Human TRPV1 [2]; [7]): 12.8 nM |
| Cc1cc(NC(=O)N2CC=C(c3ncc(-c4nnc(CO)o4)cc3C)CC2)ccc1C(F)(F)F [Compound I-44, 4-(5-(5-(hydroxymethyl)-1,3,4-oxadiazol-2-yl)-3-methylpyridin-2-yl)-N-(3-methyl-4-(trifluoromethyl)phenyl)-5,6-dihydropyridine-1(2H)-carboxamide] | ≤ 100 |  |  | IC50 (Human TRPV1 [2]; [7]): 1 nM |
